From US10272053B2, “Nanoparticle targeted drug delivery to the lungs using extra-testicular sertoli cells” (UNIVERSITY OF SOUTH FLORIDA, priority 2008, dated 2019)

Assay: Quantification of curcumin in lungs of injected asthmatic mice (UV absorbance)
Format: in vivo, mouse
Settings: IV SCET
Description: […] Each lung was placed in a labeled container with 1 ml PBS. The lungs were then sonicated for 10 seconds by the Sonic Dismembrinator 60 (Fisher Scientific) to lyse the Sertoli cells and release the curcumin nanoparticles. The curcumin was then separated from the nanoparticles by adding 500 μl DMSO to each container. The suspension was then centrifuged at 1200 rpm for 10 minutes and the supernatant was collected. A UV spectrum was collected from each supernatant sample.
In addition to normal mice, some female C57BL/6 and BALB/c mice were sensitized by intraperitoneal injection (i.p.) of 10 μl ovalbumin (OVA) with alum as previously described to mimic acute allergic asthma (Weggman, M. Animal models of chronic experimental asthma—strategies for the identification of new therapeutic targets. Occup Med Toxicol. 3 (Suppl 1) (2008); Temelkovski J, Hogan S P, Shepherd D P, Foster P S, Kumar R K. An improved murinemodel of asthma: selective airway inflammation, epithelial lesions and increased methacholine responsiveness following chronic exposure to aerosolised allergen. Thorax. 10, 849-56 (1998)). The mice were challenged weekly for 3 weeks with an intranasal injection (i.n.) of 25 μl OVA (20 mg/ml). One hour after the last i.n. challenge, the treatment group (n=7) was injected via the tail vein with pre-loaded, pre-labeled SCET (8×10^6) that contained nanoparticles coupled with […] curcumin dose. Others asthmatic mice were not injected with SCET to serve as untreated controls (n=6). […]
Each lung was placed in a labeled container with 1 ml PBS. The lungs were then sonicated for 10 seconds by the Sonic Dismembrinator 60 (Fisher Scientific) to lyse the Sertoli cells and release the curcumin nanoparticles. The curcumn was then separated from the nanoparticles by adding 500 μl DMSO to each container. The suspension was then centrifuged at 1200 rpm for 10 minutes and the supernatant was collected. A UV spectrum was collected from each supernatant sample. Data was presented for absorbance assays of Sertoli cells, nanoparticles and curcumin from all samples from all mice, including a sample of the nanoparticle pre-loaded, pre-labeled SC injectable (8×10^6) were replicated and the mean values of SCs, nanoparticles and curcumin were expressed as a percentage of the mean value determined in the pre-loaded, pre-labeled Sertloli cell injectable (8×10^6)

percentage of injected curcumin load present in the lungs (15 minutes post-injection): 80%
delivery of curcumin throughout the pulmonary tissue (time not stated): 80%
percentage of total curcumin in the injected SCET found in the lungs (asthmatic mice, 25 hours following injection): 80%
percentage of injected curcumin load present in the lungs (asthmatic mice, one hour post-injection): 80%
Compound: COc1cc(/C=C/C(=O)CC(=O)/C=C/c2ccc(O)c(OC)c2)ccc1O [curcumin]
